{
  "source": "patent US11191743B2",
  "about": "“Modulators of zinc activated cation channel” (Dignity Health, priority 2016, dated 2021)",
  "key": {"iTreg cells": {"tested_on": "iTreg cells", "assay": "Calcium influx assay in Treg cells", "format": "cell-based, human", "procedure": "Treg cells were loaded with calcium sensitive fluorescent dye X-Rhod-1 AM (cell permeant) (2 μM) for 60 min at room temperature. After wash, the cells were placed onto a glass-bottom petri dish with coated glass surface to allow cells attached to the glass surface. The fluorescence was detected using a microscope-based detection system with a different filter set (excitation filter ET560/40x, T585LPxr dichroic mirror, and ET630/75m emission filter). The fluorescence signal, first in the absence and then in the presence of a ZACN agonist, was low-pass filtered with a signal filter at 1 Hz and digitized with a Digidata1440 digitizer at 10 Hz."}, "ZACN [1]": {"target": "T1, ZACN (Homo sapiens, UniProt Q401N2)", "T1 sequence (Q401N2 26-412)": "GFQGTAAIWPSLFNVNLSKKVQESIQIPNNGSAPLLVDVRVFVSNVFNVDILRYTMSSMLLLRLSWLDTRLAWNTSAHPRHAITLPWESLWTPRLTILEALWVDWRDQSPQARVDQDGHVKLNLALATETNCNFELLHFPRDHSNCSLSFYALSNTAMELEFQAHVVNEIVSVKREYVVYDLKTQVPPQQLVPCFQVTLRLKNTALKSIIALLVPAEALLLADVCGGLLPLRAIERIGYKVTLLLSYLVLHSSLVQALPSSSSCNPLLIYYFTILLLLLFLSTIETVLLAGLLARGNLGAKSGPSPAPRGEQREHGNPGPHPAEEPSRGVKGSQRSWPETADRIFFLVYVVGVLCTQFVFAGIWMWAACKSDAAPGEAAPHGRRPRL", "set-up": "host or cells: HEK cells (exogenous expression)", "settings": "cited from earlier work"}, "[2]": {"tested_on": "iTreg-induced immunosuppression of T cell division", "format": "cell-based, human", "procedure": "Live Treg cells (CD4+CD25^high) and conventional T cells (Tconv cells) (CD4+CD25−) are obtained by immunomagnetic cell isolation kit from human iTreg. Tconv cells are labeled with CFSE (10 uM for 10 min). After washing, the labeled cells are distributed into multiple wells (1×10^5/well) in a round bottom 96-well plate with various numbers (2-fold serial dilutions from 1×10^5/well) of Treg cells in each well. The mixed cells (Treg and Tconv with different ratios) are co-cultured for 72 h in the presence of anti-CD3/CD28-coated sulfate latex beads. The intensity of CFSE fluorescence that declines upon division of the labeled cells is measured by flow cytometry.\nAs disclosed throughout the disclosure, and specifically in FIG. 7, Zinc and/or d-tubocurarine has an influence on iTreg suppression function. CFSE Immunosuppression Assay uses a cell permeable reactive fluorescent dye, CFSE. After entering cells, CFSE interacts with intracellular proteins, and permanently stain the cell. The fluorescence intensity will decrease along with the T cell division."}, "ZACN [3]": {"target": "T1, ZACN", "assay": "Two-electrode voltage-clamp, ZACN expressed in Xenopus laevis oocytes: agonist-induced current", "format": "cell-based", "set-up": "host or cells: Xenopus laevis oocytes injected with cRNA (pGEMHE vector, T7 transcript)", "from_the_text": "The cDNA encoding wild type, human ZACN was purchased from OpenBiosystems, and cloned into the pGEMHE vector in the T7 orientation. For cRNA synthesis, cDNA templates were PCR amplified using primers that cover the M13 forward and reverse regions and high fidelity Phusion DNA polymerase (New England Biolab, Ipswich, Mass., USA). PCR products were then purified and served as templates for cRNA synthesis. cRNAs were transcribed by T7 RNA polymerase (Promega, Madison, Wis., USA) using standard in vitro transcription protocols. After digestion of the DNA template by RNase-free DNase I, cRNAs were purified and resuspended in diethyl pyrocarbonate (DEPC)-treated water. cRNA integrity was examined on a 1% agarose gel, and cRNA concentration was determined by optical density measurements at 260 nm using an Eppendorf Biophotometer.\nOocytes were harvested from female Xenopus laevis (Xenopus I, Ann Arbor, Mich., USA), using the protocol “Xenopus Care and Use” approved by the Institutional Animal Care and Use Committee of the St. Joseph's Hospital and Medical Center. Stage VI oocytes were selected and incubated at 16° C. before injection. Micropipettes for injection were pulled from borosilicate glass (Drummond Scientific, Broomall, Pa., USA) on a Sutter P87 horizontal puller, and the tips were cut with forceps to ≈40 μm in diameter. cRNAs encoding ZACN was drawn up into the micropipette and injected into oocytes with a Nanoject micro-injection system (Drummond Scientific) in a total volume of ˜60 nl and total cRNA of ˜20 ng for each oocyte.\nTwo to 5 days after injection, oocytes expressing ZACN were placed in a home-made, small volume chamber and a 16-channel manifold, continuously perfused with oocyte Ringer's solution (OR2), which consisted of (in mM) 92.5 NaCl, 2.5 KCl, 1 CaCl2, 1 MgCl2 and 5 HEPES, pH 7.5. ValveLink 16 computer-controlled perfusion system was used to switch solutions between the OR2 and a test solution. The perfusion chamber was grounded through an agar salt bridge to avoid alterations in junction potential between the Ag/AgCl grounding electrode and solution when solution/drug changes occurred. Oocytes were voltage-clamped at −70 mV to measure agonist-induced currents using an AxoClamp 900A amplifier (Axon Instruments, Foster City, Calif., USA). The current signal was low-pass filtered at 20 Hz with the built-in 4-pole low-pass Bessel filter and digitized at 100 Hz with a Digidata1440a and pClamp 10 software (Molecular Devices).\nFor each oocyte, concentration-inhibition curves for drug-induced inhibition of zinc-activated current responses or concentration response curves for agonist-induced current of the ZACN were fit to the Hill equation using least squares methods (Prism 6.0, GraphPad Software, Inc., San Diego, Calif., USA) to derive IC50 or EC50 values (the concentration required for inducing a half maximal current), Hill coefficients (the slope factor), and maximum current levels in absolute terms. Current levels in each oocyte were normalized to the maximum current in the absence of the inhibitor, allowing normalized data to be averaged across multiple oocytes and to be fit again to the Hill equation. All data are presented as mean±SEM (standard error)."}, "glycine (α1) receptor": {"target": "T2, glycine (α1) receptor (Homo sapiens, UniProt P23415)", "T2 construct": "expressed in transfected cells", "T2 sequence (P23415 29-457)": "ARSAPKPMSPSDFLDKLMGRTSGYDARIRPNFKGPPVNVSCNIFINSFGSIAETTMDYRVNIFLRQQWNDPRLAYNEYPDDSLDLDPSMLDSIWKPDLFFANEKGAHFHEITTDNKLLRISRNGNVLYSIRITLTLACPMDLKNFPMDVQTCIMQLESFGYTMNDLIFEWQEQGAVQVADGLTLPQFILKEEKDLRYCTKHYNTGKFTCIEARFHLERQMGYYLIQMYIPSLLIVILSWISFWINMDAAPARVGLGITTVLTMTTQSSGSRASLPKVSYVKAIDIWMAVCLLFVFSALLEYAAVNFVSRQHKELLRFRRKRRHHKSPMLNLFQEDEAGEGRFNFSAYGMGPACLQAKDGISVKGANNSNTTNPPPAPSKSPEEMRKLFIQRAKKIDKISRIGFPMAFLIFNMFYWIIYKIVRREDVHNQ", "assay": "Application of NBT to other Cys-loop receptors", "format": "cell-based", "settings": "listed as NBT", "from_the_text": "(§1) To date the only known agonist and antagonist for ZACN are Zn^2+ (agonist) and d-tubocurarine (antagonist)."}, "GABAA (α1β2γ2) receptor": {"target": "T3, GABAA (α1β2γ2) receptor (Homo sapiens, UniProt P14867+P18507+P47870)", "T3 construct": "expressed in transfected cells", "T3 sequence (P47870 25-512)": "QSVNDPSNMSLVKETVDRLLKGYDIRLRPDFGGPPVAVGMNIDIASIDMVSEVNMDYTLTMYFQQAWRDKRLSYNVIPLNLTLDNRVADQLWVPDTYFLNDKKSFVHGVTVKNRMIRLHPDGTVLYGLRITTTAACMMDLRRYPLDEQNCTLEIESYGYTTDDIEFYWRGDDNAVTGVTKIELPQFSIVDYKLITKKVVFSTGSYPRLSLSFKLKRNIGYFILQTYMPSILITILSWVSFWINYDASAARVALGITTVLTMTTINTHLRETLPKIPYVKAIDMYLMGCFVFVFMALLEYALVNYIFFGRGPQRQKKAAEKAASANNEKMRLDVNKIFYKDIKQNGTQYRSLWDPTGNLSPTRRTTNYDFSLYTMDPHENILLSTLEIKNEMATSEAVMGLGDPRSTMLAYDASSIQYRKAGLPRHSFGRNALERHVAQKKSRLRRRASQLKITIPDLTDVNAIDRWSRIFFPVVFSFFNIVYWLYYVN", "T3 sequence (P18507 40-475)": "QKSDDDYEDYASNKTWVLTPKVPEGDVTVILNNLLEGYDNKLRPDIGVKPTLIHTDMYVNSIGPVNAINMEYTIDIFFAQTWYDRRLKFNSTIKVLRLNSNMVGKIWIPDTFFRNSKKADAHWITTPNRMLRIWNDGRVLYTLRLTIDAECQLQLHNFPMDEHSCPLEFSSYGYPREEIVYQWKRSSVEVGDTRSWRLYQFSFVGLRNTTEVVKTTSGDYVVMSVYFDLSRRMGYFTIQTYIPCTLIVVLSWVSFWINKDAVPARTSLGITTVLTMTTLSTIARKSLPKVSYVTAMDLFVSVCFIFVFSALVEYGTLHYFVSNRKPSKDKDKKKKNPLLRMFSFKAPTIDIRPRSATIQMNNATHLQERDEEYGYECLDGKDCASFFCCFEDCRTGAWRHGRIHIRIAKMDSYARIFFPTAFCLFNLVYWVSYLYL", "T3 sequence (P14867 28-456)": "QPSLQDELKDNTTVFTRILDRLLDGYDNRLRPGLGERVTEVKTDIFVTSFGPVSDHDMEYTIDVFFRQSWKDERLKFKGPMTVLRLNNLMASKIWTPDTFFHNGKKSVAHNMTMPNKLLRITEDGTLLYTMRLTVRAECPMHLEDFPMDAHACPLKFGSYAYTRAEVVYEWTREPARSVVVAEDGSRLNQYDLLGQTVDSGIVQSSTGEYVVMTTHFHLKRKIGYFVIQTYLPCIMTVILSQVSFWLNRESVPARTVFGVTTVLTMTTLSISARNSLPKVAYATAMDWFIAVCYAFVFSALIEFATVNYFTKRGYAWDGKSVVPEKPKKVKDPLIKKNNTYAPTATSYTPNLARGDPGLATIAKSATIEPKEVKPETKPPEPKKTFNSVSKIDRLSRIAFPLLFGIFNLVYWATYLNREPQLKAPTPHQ", "assay": "Application of NBT to other Cys-loop receptors", "format": "cell-based", "settings": "listed as NBT", "from_the_text": "as §1"}, "[4]": {"target": "T4, serotonin (5HT3A) receptor (Homo sapiens, UniProt P46098)", "T4 construct": "expressed in transfected cells", "T4 sequence (P46098 24-478)": "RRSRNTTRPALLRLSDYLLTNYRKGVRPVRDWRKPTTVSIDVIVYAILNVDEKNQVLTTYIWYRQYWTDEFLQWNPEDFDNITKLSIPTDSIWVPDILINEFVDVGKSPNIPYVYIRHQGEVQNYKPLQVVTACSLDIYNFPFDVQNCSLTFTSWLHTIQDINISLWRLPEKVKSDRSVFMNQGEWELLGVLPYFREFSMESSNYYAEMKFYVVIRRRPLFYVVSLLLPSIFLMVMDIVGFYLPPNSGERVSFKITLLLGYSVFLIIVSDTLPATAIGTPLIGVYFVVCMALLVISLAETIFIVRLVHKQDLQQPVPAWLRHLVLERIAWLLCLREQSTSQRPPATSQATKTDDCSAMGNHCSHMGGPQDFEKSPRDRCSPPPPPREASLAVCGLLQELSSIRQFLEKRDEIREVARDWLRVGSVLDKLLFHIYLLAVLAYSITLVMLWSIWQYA", "assay": "Application of NBT to other Cys-loop receptors", "format": "cell-based", "settings": "listed as NBT", "from_the_text": "as §1"}, "GABAA (α6β2δ) receptor": {"target": "T5, GABAA (α6β2δ) receptor (Homo sapiens, UniProt O14764+P47870+Q16445)", "T5 construct": "expressed in transfected cells", "T5 sequence (Q16445 20-453)": "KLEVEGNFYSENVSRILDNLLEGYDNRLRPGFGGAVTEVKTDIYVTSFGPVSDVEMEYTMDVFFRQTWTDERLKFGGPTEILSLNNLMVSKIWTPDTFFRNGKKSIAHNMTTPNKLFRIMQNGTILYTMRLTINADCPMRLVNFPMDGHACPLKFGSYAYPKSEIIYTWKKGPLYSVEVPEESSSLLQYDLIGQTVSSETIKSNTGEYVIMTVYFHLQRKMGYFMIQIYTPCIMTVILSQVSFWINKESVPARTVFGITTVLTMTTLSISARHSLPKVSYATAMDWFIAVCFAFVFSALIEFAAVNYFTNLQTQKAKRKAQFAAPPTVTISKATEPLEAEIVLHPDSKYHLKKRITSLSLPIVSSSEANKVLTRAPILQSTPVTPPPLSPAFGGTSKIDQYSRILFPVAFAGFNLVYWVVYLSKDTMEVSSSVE", "T5 sequence (P47870 25-512 limits assumed)": "as the sequence (P47870 25-512) above", "T5 sequence (O14764 17-452 limits assumed)": "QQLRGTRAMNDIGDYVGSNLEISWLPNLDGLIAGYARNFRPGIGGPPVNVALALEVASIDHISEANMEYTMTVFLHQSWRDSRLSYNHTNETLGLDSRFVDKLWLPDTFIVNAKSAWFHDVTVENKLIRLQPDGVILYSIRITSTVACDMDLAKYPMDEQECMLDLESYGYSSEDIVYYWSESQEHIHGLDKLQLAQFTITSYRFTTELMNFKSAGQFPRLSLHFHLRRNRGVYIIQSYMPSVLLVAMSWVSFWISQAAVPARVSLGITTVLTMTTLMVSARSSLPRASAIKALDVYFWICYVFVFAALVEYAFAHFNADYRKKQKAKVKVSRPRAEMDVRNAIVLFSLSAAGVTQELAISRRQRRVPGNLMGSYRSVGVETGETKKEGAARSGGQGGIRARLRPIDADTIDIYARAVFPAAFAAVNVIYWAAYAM", "assay": "Application of NBT to other Cys-loop receptors", "format": "cell-based", "settings": "listed as NBT", "from_the_text": "as §1"}, "nACh (α7) receptor": {"target": "T6, nACh (α7) receptor (Homo sapiens, UniProt P36544)", "T6 construct": "expressed in transfected cells", "T6 sequence (P36544 23-502)": "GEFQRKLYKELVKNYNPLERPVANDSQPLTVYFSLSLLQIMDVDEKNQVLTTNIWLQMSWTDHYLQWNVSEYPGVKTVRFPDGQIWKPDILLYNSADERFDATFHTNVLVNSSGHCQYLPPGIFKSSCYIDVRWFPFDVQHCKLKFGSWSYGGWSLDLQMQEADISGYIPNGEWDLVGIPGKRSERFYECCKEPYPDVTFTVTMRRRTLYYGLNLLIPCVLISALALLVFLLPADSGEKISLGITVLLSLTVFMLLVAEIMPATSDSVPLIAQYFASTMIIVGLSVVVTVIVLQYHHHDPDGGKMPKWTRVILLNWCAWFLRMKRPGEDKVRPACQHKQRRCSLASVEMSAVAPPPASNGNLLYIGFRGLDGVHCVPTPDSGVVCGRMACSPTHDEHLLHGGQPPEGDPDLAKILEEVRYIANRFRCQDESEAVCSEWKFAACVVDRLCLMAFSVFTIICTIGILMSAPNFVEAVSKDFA", "assay": "Application of NBT to other Cys-loop receptors", "format": "cell-based", "settings": "listed as NBT", "from_the_text": "as §1"}, "GABAC (ρ1) receptor": {"target": "T7, GABAC (ρ1) receptor (Homo sapiens, UniProt P24046)", "T7 construct": "expressed in transfected cells", "T7 sequence (P24046 22-479)": "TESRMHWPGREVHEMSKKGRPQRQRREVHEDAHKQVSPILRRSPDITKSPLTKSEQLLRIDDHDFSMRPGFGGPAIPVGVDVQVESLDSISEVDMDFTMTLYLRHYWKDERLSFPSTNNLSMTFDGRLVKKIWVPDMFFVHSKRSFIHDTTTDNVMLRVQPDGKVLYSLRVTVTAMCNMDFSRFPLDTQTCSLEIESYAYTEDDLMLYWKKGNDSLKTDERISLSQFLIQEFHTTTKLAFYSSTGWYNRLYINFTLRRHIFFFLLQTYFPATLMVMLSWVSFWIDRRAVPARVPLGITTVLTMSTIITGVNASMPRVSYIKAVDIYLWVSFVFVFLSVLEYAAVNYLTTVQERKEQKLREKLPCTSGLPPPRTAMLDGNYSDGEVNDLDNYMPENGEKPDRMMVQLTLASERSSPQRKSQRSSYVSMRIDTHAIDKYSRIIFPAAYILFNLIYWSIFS", "assay": "Application of NBT to other Cys-loop receptors", "format": "cell-based", "settings": "listed as NBT", "from_the_text": "as §1"}, "nACh (α4β2) receptor": {"target": "T8, nACh (α4β2) receptor (Homo sapiens, UniProt P17787+P43681)", "T8 construct": "expressed in transfected cells", "T8 sequence (P43681 29-627)": "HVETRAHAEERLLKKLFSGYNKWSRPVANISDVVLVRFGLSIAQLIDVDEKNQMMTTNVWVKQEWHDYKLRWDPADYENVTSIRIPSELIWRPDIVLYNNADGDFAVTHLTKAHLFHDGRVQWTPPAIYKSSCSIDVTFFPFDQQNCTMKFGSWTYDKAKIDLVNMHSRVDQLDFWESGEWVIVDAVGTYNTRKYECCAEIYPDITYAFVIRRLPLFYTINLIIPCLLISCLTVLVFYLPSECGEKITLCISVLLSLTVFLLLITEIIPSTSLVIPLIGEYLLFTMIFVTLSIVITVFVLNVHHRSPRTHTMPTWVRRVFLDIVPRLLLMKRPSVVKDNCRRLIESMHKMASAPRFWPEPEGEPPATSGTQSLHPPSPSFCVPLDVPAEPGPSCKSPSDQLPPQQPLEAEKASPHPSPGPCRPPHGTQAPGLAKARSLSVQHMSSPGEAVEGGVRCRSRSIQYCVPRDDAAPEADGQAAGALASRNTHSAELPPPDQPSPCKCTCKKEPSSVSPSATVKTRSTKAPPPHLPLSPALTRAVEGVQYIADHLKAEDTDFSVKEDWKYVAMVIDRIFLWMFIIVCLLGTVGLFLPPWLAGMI", "T8 sequence (P17787 26-502)": "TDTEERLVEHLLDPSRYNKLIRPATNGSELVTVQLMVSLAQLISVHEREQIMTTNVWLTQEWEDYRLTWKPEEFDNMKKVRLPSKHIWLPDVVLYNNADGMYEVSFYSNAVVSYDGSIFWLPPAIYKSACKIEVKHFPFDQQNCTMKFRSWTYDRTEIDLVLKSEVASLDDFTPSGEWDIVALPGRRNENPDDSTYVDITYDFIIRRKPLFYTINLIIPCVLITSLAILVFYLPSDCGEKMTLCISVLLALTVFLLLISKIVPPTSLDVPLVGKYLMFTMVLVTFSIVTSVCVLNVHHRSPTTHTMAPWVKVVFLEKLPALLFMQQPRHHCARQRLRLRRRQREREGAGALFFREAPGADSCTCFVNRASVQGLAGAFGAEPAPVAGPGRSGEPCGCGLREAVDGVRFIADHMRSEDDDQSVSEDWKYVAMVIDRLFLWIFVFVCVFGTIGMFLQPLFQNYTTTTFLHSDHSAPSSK", "assay": "Application of NBT to other Cys-loop receptors", "format": "cell-based", "settings": "listed as NBT", "from_the_text": "as §1"}},
  "note": "Entries after “also recorded” stand apart in the source; their conditions may differ. Like-named read-outs stand apart in the source and are kept apart here.",
  "data": [
    {"compound": "[Cl-].[Cl-].[Zn+2]", "note": "[ZnCl2, Zinc chloride]", "values": [
      {"measurement": "intracellular calcium in iTreg cells", "setting": "iTreg cells", "value": "intracellular calcium increase"},
      {"measurement": "EC50", "setting": "ZACN [1]; HEK cells, read-out: ZnCl2 EC50 for ZACN expressed in HEK cells", "value": 540, "unit": "µM"},
      {"measurement": "activation of ZACN in HEK cells", "setting": "ZACN [1]", "value": "activated this receptor dose-dependently"},
      {"measurement": "effect on T cell viability", "setting": "[2]; high concentration, 1 mM", "value": "killed T cells"},
      {"measurement": "ZnCl2 EC50 in Xenopus oocytes relative to HEK cells (fold greater)", "setting": "ZACN [3]", "value": "approximately 3 fold"},
      {"measurement": "approximate EC80 Zn2+ concentration for this receptor", "setting": "ZACN [3]", "value": "~2000", "unit": "µM"},
      {"measurement": "EC50", "setting": "ZACN [3]; ZACN expressed in X. laevis oocytes, read-out: EC50 in activating ZACN", "value": "1640 ± 56", "unit": "µM"},
      {"measurement": "EC50", "setting": "ZACN [3]; ZACN expressed in X. laevis oocytes, read-out: EC50 on ZACN", "value": 1660, "unit": "µM"},
      {"measurement": "EC50", "setting": "ZACN [3]; read-out: approximate EC50 Zn2+ concentration for this receptor", "value": "~500", "unit": "µM"}
    ]},
    {"compound": "COc1cc2c3cc1Oc1cc(ccc1O)C[C@@H]1c4c(cc(OC)c(O)c4Oc4ccc(cc4)C[C@@H]3N(C)CC2)CC[N+]1(C)C", "note": "[d-tubocurarine]", "values": [
      {"measurement": "effect on spontaneous activity of ZACN in HEK cells", "setting": "ZACN [1]", "value": "blocked"},
      {"measurement": "influence on iTreg suppression function", "setting": "[2]", "value": "inhibited the iTreg-induced immunosuppression of T cell division"}
    ]},
    {"compound": "COc1cc(-c2ccc(-n3nc(-c4ccccc4)n[n+]3-c3ccc([N+](=O)[O-])cc3)c(OC)c2)ccc1-n1nc(-c2ccccc2)n[n+]1-c1ccc([N+](=O)[O-])cc1", "note": "[Nitro Blue Tetrazolium]", "values": [
      {"measurement": "response to NBT application", "setting": "glycine (α1) receptor", "value": "elicited no response; also recorded: no agonist or antagonist effect"},
      {"measurement": "response to NBT application", "setting": "GABAA (α1β2γ2) receptor", "value": "elicited no response; also recorded: no agonist or antagonist effect"},
      {"measurement": "response to NBT application", "setting": "[4]", "value": "elicited no response; also recorded: no agonist or antagonist effect"},
      {"measurement": "response to NBT application", "setting": "GABAA (α6β2δ) receptor", "value": "elicited no response; also recorded: no agonist or antagonist effect"},
      {"measurement": "response to NBT application", "setting": "nACh (α7) receptor", "value": "elicited no response; also recorded: no agonist or antagonist effect"},
      {"measurement": "response to NBT application", "setting": "GABAC (ρ1) receptor", "value": "elicited no response; also recorded: no agonist or antagonist effect"},
      {"measurement": "response to NBT application", "setting": "nACh (α4β2) receptor", "value": "elicited no response; also recorded: no agonist or antagonist effect"},
      {"measurement": "ZACN recovery from activation, compared with ZnCl2", "setting": "ZACN [3]", "value": "much slower"},
      {"measurement": "agonist activity on human ZACN (words)", "setting": "ZACN [3]", "value": "selective agonist"}
    ]},
    {"compound": "Cc1c(C2(c3cc(C(C)C)c(O)c(Br)c3C)OS(=O)(=O)c3ccccc32)cc(C(C)C)c(O)c1Br", "note": "[bromothymol blue]", "values": [
      {"measurement": "agonist activity on human ZACN (words)", "setting": "ZACN [3]", "value": "activate the human ZACN"}
    ]},
    {"compound": "brilliant blue", "values": [
      {"measurement": "agonist activity on human ZACN (words)", "setting": "ZACN [3]", "value": "activate the human ZACN"}
    ]}
  ]
}
